Target: S-adenosylmethionine synthase isoform type-2 (Homo sapiens, UniProt P31153)
Experiment: In Vitro Enzymatic Inhibition Activity Assay
Description: Enzymatic activity assays of compounds of this patent against MAT2A (to detect half inhibitory concentration IC50 values of the compounds) were performed using the phosphate detection kit PiColorLockTM (ab270004, purchased from Abcam). This method utilized the principle that purified human MAT2A enzyme catalyzes the formation of S-adenosylmethionine (SAM) from L-methionine and ATP to release free phosphate, and used the spectrophotometric method to quantify phosphate, so as to determine the enzymatic activity of MAT2A. Compounds were diluted in a 10-fold gradient starting at 1 mM with 100% DMSO (for a total of 8 concentrations) and 2 μL of each concentration was added to 48 μL of reaction buffer (50 mM Tris-HCl PH 7.5, 50 mM KCl, 10 mM MgCl2, 0.01% Brij-35, 0.01% BSA, 1 mM DTT) and mixed well. The final diluted compound was prepared, and 5 μL of MAT2A enzyme (final concentration of 10 nM), 5 μL of ATP (final concentration of 50 μM), and 5 μL of L-methionine (final concentration of 100 μM) were added to each well of a 384-well plate (#3701, purchased from CORNING). After the 384-well plate was placed in the incubator at 23° C. for 6 h, 5 μL of PiColorLock reagent diluted Accelerator (dilution ratio 1:100) was added to each well, and the reaction was stopped by incubating in the incubator at 23° C. for 5 min. 2 μL of Stabiliser was added, the absorbance was read at 630 nm on BMG CLARIOstar, and the IC50 value of the compound was calculated by using GraphPad Prism software.

S-adenosylmethionine synthase isoform type-2, sequence (P31153 whole entry, canonical isoform): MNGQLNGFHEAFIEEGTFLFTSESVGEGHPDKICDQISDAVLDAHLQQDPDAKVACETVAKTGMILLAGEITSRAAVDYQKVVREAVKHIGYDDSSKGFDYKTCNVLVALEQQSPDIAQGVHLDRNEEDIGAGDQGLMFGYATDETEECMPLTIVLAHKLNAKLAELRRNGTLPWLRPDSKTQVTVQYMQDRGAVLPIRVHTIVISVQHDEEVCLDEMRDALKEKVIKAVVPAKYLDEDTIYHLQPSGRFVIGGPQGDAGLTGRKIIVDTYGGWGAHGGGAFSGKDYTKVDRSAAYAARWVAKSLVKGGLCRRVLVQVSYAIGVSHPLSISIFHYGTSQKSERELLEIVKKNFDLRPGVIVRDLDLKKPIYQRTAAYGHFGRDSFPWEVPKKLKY

IC50 [nM]	SMILES
1.19	COC(=O)c1c(N)c2ccc(OC(F)F)cc2n(-c2ccc(N)cc2)c1=O [US20250221979, Example 320]
1.19	COC(=O)c1c(N)c2ncc(C3CC3)nc2n(-c2ccc(C(C)O)cc2)c1=O (stereo not drawn) [US20250221979, Example 356]
1.96	COC(=O)c1c(N)c2ccc(OC(F)F)nc2n(-c2ccc([C@@H](C)O)cc2)c1=O [US20250221979, Example 372]
